{
  "source": "paper PMC5603267",
  "about": "(Cell metabolism, 2017)",
  "key": {"[1]": {"biological_target": "acetyl-CoA carboxylase 2 (ACC2) (Homo sapiens, UniProt O00763)", "sequence (O00763 whole entry)": "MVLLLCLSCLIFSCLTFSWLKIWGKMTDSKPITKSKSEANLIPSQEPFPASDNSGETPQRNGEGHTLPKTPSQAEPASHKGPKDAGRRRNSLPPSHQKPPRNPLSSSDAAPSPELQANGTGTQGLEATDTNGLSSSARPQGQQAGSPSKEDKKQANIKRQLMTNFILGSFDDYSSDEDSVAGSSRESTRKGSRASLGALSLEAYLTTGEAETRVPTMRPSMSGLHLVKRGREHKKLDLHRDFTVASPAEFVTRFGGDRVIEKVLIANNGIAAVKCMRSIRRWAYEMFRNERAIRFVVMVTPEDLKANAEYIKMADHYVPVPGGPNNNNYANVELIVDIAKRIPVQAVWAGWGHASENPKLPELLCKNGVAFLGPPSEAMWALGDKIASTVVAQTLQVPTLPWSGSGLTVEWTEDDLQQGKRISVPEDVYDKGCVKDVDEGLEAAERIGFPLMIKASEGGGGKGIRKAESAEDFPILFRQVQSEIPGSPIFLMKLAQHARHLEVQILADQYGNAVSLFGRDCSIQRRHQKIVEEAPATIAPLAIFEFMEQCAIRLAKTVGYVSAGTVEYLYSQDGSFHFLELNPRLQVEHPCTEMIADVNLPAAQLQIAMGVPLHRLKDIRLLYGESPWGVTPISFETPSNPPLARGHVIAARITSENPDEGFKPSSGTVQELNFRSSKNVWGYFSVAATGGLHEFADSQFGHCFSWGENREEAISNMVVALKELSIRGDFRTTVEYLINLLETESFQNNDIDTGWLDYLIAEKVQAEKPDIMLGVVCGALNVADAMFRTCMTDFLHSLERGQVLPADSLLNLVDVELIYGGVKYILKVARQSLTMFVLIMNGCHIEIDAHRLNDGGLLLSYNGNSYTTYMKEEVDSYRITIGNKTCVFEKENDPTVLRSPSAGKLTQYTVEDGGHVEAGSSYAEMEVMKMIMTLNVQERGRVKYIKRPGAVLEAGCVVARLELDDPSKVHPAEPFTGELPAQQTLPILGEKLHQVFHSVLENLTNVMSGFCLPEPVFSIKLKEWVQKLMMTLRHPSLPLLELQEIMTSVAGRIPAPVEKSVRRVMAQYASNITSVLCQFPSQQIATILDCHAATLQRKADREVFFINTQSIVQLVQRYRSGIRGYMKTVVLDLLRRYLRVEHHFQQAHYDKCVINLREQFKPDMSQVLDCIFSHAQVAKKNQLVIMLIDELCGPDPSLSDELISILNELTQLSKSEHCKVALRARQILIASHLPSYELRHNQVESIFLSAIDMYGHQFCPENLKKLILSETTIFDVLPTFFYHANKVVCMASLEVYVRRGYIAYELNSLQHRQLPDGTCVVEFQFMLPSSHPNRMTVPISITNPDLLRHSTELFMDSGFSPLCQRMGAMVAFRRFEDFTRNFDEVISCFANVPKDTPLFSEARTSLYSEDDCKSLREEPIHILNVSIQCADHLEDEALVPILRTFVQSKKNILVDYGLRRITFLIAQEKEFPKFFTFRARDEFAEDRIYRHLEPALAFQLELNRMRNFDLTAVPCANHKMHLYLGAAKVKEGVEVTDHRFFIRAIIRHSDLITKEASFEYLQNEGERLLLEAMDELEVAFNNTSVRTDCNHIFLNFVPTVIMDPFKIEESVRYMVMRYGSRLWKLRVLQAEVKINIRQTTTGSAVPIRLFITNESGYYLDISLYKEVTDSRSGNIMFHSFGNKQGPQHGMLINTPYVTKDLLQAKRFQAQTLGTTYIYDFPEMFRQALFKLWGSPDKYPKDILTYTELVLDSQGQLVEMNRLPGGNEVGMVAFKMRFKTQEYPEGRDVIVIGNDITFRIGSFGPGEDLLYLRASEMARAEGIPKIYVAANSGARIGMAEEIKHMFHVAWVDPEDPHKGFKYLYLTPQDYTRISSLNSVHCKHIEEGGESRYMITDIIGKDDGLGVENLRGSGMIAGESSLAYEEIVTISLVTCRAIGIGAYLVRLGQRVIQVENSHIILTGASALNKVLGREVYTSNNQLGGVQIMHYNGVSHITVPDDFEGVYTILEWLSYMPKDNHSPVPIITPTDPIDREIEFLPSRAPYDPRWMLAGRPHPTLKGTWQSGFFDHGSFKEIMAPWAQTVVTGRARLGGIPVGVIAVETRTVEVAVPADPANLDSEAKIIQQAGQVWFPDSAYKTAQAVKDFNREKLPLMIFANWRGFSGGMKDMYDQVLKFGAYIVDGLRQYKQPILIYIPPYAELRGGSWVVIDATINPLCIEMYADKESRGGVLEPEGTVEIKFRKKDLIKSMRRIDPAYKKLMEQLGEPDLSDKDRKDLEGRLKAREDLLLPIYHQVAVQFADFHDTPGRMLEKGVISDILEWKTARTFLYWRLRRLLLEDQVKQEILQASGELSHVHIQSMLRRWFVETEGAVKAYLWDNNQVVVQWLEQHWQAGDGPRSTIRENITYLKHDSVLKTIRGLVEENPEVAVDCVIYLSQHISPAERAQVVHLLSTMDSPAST", "test": "purified ACC incubated with MK-4074, ATP, acetyl-CoA and NaH14CO3", "assay_type": "biochemical"}, "[2]": {"biological_target": "acetyl-CoA carboxylase 1 (ACC1) (Homo sapiens, UniProt Q13085)", "test": "purified ACC incubated with MK-4074, ATP, acetyl-CoA and NaH14CO3", "assay_type": "biochemical"}},
  "data": [
    {"smiles": "COc1cc(C(=O)N2CCC3(CC2)CC(=O)c2cc(-c4cncc(C(=O)O)c4)ccc2O3)cc2c1c(C)cn2C1CC1", "note": "[MK-4074]", "values": [
      {"measurement": "IC50", "setting": "[1]", "value": "~3", "unit": "nM"},
      {"measurement": "IC50", "setting": "[2]", "value": "~3", "unit": "nM"}
    ]}
  ]
}
